≈ marks a conversion by molar mass, not a printed value.
Details: buffer; pH 7.4; 200.0 µM

| SMILES | solubility kinetic [µg/mL] |
| --- | --- |
| CCC(C)NC(=O)COc1ccc(OCc2ccccc2)cc1 (stereo unspecified) | 4.8 (≈ 15.3 µM) |
| Cc1cc(C)nc(Nc2cc([N+](=O)[O-])ccc2C)n1.Cl | 5.4 |
| CC1(C)C=C2C(=NN(c3ccccc3)C(N)=C2C#N)CO1 | > 42 |
| Cc1ccc(C2(C)NC(=O)N(CC(=O)N3CCc4ccccc43)C2=O)cc1 (stereo unspecified) | 3.6 (≈ 9.91 µM) |
| CC(C)(c1ccccc1)c1ccc(OCCN2CCCC2)cc1 | 29.2 (≈ 94.4 µM) |
| CN(C)S(=O)(=O)c1ccc(C(=O)OC2CCOC2=O)cc1 (stereo unspecified) | > 47 |
| CCC(=O)N/C(N)=N/c1nc2ccccc2o1 | 14.8 (≈ 63.7 µM) |
| CC(CCc1ccccc1)NC(=O)CNc1cccc([N+](=O)[O-])c1 (stereo unspecified) | > 49.1 |
| O=c1oc2ccc(Cl)cc2nc1/C=C(\O)c1cccs1 | 20.9 (≈ 68.4 µM) |
| Cc1ccc(C(=O)NCC(=O)Nc2ccncc2)s1 | > 41.3 |
| COc1ccc(/C=C/C(=O)OCC(=O)NC2CCCCCC2)cc1OC | 7.1 (≈ 19.6 µM) |
| Cc1ccc(S(=O)(=O)CC(=O)NC(C)c2ccccc2)cc1 (stereo unspecified) | 42.4 (≈ 134 µM) |
| CCCCc1ccc(S(=O)(=O)NC2CCS(=O)(=O)C2)cc1 (stereo unspecified) | 47.9 (≈ 145 µM) |
| CCCNC(=O)Cn1nc(C(F)(F)F)c2c1CCC2 | > 41.3 |
| CCC(=O)OCC(=O)Nc1ncc(C(F)(F)F)cc1Cl | > 46.6 |
| Cc1c(C(=O)Oc2cccc3cccnc23)cccc1[N+](=O)[O-] | 7.9 (≈ 25.6 µM) |
| O=C(Nc1ccccc1)C1CCCN1/C=C/C(=O)C(F)(F)F (stereo unspecified) | > 46.8 |
| COc1ccc(C(=O)OCC(=O)N2C(C)CCCC2C)cc1S(=O)(=O)N1CCOCC1 (stereo unspecified) | > 68.2 |
| CCOC(=O)c1cn2c(C)cccc2n1 | > 30.6 |
| CCOc1ccccc1C1CC(=O)Nc2cc(C)c(C)cc21 (stereo unspecified) | < 0.6 |
| O=C(NCCc1ccc(Cl)cc1)C1CCCN1C(=O)Nc1ccccc1 (stereo unspecified) | 54.7 (≈ 147 µM) |
| O=C(O)c1cccc(NC(=O)c2ccccc2NC(=O)c2cccc([N+](=O)[O-])c2)c1 | 48.3 (≈ 119 µM) |
| Nc1ccc[n+](CC(=O)c2ccccc2)c1.[Br-] | > 44 |
| COc1ccc2oc(C(=O)NC(C)c3ccccn3)c(C)c2c1 (stereo unspecified) | > 46.6 |

| SMILES | solubility kinetic [µg/mL] |
| --- | --- |
| CN(C)c1ccc(NC(=O)Nc2cccc3ccccc23)cc1 | 2.6 (≈ 8.51 µM) |
| Oc1ccc(-c2csc(Nc3ccccn3)n2)c(O)c1 | 4.4 (≈ 15.4 µM) |
| Cc1cnc(NC(=O)Cc2ccccc2F)s1 | 3.4 (≈ 13.6 µM) |
| COc1cc(C=O)ccc1Oc1ccc(S(=O)(=O)N2CCOCC2)cc1[N+](=O)[O-] | 28.7 (≈ 67.9 µM) |
| CCOC(=O)/C(=C/Nc1ccc(F)cc1)[N+](=O)[O-] | 33.9 (≈ 133 µM) |
| Cc1ccccc1NC(=O)c1sc(NC(=O)C2CC2)nc1C | 4.8 (≈ 15.2 µM) |
| S=C1NCN(Cc2cccnc2)CN1c1cccc2ccccc12 | > 50.2 |
| Cc1csc(SC(C)C(=O)Nc2ccc3c(c2)OCCO3)n1 (stereo unspecified) | > 50.5 |
| Cc1noc(C)c1C(=O)NCCc1c(C)[nH]c2ccccc12 | 41.5 (≈ 140 µM) |
| O=C(N/C(=C/c1cccnc1)C(=O)N1CCOCC1)c1ccccc1F | > 53.3 |
| Nc1nc(NCC(=O)O)nc(N2CCCCCC2)c1[N+](=O)[O-] | 44.1 (≈ 142 µM) |
| CC12CC3CC(C)(C1)CC(C(O)CN1CCOCC1)(C3)C2.Cl (stereo unspecified) | > 49.5 |
| O=C(NC(=S)Nc1ncccn1)c1ccc(F)cc1 | 7.3 (≈ 26.4 µM) |
| CN(N)c1nc(N2CCCC2)nc(N2CCCC2)n1 | > 39.5 |
| CCOC(=O)Cc1csc(NC(=O)COc2cccc(C)c2)n1 | 8.4 (≈ 25.1 µM) |
| Cc1ccc(C(=O)Nc2scc(-c3ccccc3)c2C(=O)O)cc1 | > 50.6 |
| O=[N+]([O-])c1ccc(S(=O)(=O)Nc2ccccn2)cc1 | > 41.9 |
| COc1ccccc1NC(=O)Nc1ccc2c(c1)CCC2 | < 0.3 |
| Cc1ccc(NC(=O)O/N=C/c2ccc(F)cc2)cc1 | 23.1 (≈ 84.8 µM) |
| CC(NS(=O)(=O)c1ccc(N)cc1)C1CC2CCC1C2 (stereo unspecified) | 6.8 (≈ 23.1 µM) |
| COc1cccc(CC2(CO)CCN(S(=O)(=O)N(C)C)CC2)c1 | > 51.4 |
| CN(c1cccc(NC(=O)c2cccc([N+](=O)[O-])c2)c1)S(C)(=O)=O | > 52.4 |
| Cc1[nH]c2c([N+](=O)[O-])cccc2c1C | 1.2 (≈ 6.31 µM) |
| CCCCNC(=S)N1CCN(C)CC1.O=C(O)C(=O)O | > 45.8 |

| SMILES | solubility kinetic [µg/mL] |
| --- | --- |
| CC(OC(=O)c1ccncc1)C(=O)NC1CCCC1 (stereo unspecified) | > 39.3 |
| O=S1(=O)C=C(SCc2ccc(F)cc2)Nc2ccccc21 | 22.5 (≈ 70 µM) |
| Cc1ccc(Nc2nc(-c3ccncc3)nc3ccccc23)cc1 | < 0.2 |
| CC1CN(C(=O)COC(=O)c2ccc(N(C)C)cc2)CC(C)O1 (stereo unspecified) | > 48.1 |
| COc1cc(C(C[N+](=O)[O-])c2c(C)cc3ccccn23)ccc1O (stereo unspecified) | 8.9 (≈ 27.3 µM) |
| CCC(=O)N1CCc2nc(-c3ccccc3)sc2C1 | > 40.9 |
| COc1ccc2c(c1)c(C(C)=O)c(C)n2CCc1ccc(OC)c(OC)c1 | 50.8 (≈ 138 µM) |
| CC(=O)c1c(C)[nH]c(C(=O)/C(C#N)=C/c2cccc(C)c2)c1C | 39.5 (≈ 129 µM) |
| COC(=O)c1ccc(NC(=O)CCOc2ccccc2)cc1 | 4.5 (≈ 15 µM) |
| Cc1ccc(-c2csc3ncnc(N4CCN(C)CC4)c23)cc1C | 45.7 (≈ 135 µM) |
| O=C(Cc1ccccc1)N1CCN=C1SCc1cccc([N+](=O)[O-])c1 | 9.7 (≈ 27.3 µM) |
| COc1ccccc1OCC#CCn1ccnc1.O=C(O)C(=O)O | > 49.8 |
| Cl.O=S(=O)(NCCN1CCN(S(=O)(=O)c2ccccc2F)CC1)c1ccccc1F | > 72.3 |
| Cc1ccc(OCCn2c(=S)[nH]c3ccccc32)c(C(C)C)c1 | < 0.3 |
| CC1CCC(C(C)C)C(OCC(O)CN2CCCC(C)C2)C1.Cl (stereo unspecified) | > 52.2 |
| CCOc1ccc(NC(=O)/C(C#N)=C/c2cn(CC(=O)O)c3ccccc23)cc1 | > 58.4 |
| COC(=O)c1cc(S(=O)(=O)N2CCCCC2)c[nH]1 | > 40.8 |
| COCN(C#N)c1nc(N(C)C)nc(N(C)C)n1 | > 37.7 |
| C=CCNC(=O)c1cc2c(=O)n3cccc(C)c3nc2s1 | 3.4 (≈ 11.4 µM) |
| COC(=O)c1[nH]c2cc(OC)ccc2c1NC(=O)c1c(F)cccc1F | 4.9 (≈ 13.6 µM) |
| Cc1ccc(-c2ccc(CCC(=O)O)n2-c2cccc(C(=O)O)c2)cc1 | 50.4 (≈ 144 µM) |
| CC(C)C(=O)Nc1ccc(Oc2ccc3c(c2)C(=O)NC3=O)cc1 | < 0.3 |
| O=C(CN1C(=O)COc2ccccc21)Nc1ccccc1F | 21.4 (≈ 71.3 µM) |
| CCCOc1ccc(C(=O)OCCN(CC)CC)cc1N.Cl | > 49.6 |

| SMILES | solubility kinetic [µg/mL] |
| --- | --- |
| CN1C(=O)C(CC(=O)NC2CCCCC2)N(C)C1=O (stereo unspecified) | > 40.1 |
| Cc1ccc(CNC(=O)CN2C(C)CCCC2C)cc1 (stereo unspecified) | 28.9 (≈ 105 µM) |
| O=C(Nc1nc2ccccc2[nH]1)Nc1ccccc1F | 3.3 (≈ 12.2 µM) |
| CCC(=O)O/N=C(\N)c1ccc(Oc2cc(C)c(Cl)c(C)c2)c([N+](=O)[O-])c1 | < 0.3 |
| CC(NC(=O)COc1ccccc1)C(=O)N1CCN(c2ccc(F)cc2)CC1 (stereo unspecified) | > 57.8 |
| CCN(CC(=O)N1CCOCC1)S(=O)(=O)c1ccc(F)cc1 | 41.2 (≈ 125 µM) |
| O=C(CCNS(=O)(=O)c1ccccc1)Nc1ccccc1 | > 45.7 |
| Cc1ccc(C)c(NC(=O)Cn2cnc3c(oc4ccccc43)c2=O)c1 | < 0.2 |
| CC(=O)c1cccc(-n2c(CCC(=O)O)ccc2-c2ccc(C)cc2)c1 | > 52.1 |
| COc1cc2c(cc1OC)CC1(CCCCC1)N=C2.Cl | > 44.4 |
| CC(=O)N(CN1C(=O)CCC1=O)c1ccc(Cl)c(Cl)c1 | > 47.3 |
| CC(OC(=O)c1cccc([N+](=O)[O-])c1)C(=O)N1CCc2ccccc21 (stereo unspecified) | 3.7 (≈ 10.9 µM) |
| Cc1c(C(=O)OCC(=O)NC(C)c2ccccc2)oc2ccccc12 (stereo unspecified) | 4.4 (≈ 13 µM) |
| COc1ccccc1C(=O)Nc1ccc(NC(=O)c2ccco2)cn1 | 0.7 (≈ 2.08 µM) |
| CCCN1C2CCCC1CC(NC(=S)Nc1cccc(C)c1)C2 (stereo unspecified) | > 49.7 |
| O=C(NC1CCS(=O)(=O)C1)c1ccc(Br)s1 (stereo unspecified) | > 48.6 |
| Cc1nn(CC(=O)NC2CCS(=O)(=O)C2)c(C)c1[N+](=O)[O-] (stereo unspecified) | > 47.4 |
| CCOC(=O)/C=C1\SCC(=O)N1CC(=O)Nc1cccc(F)c1 | 17.1 (≈ 50.5 µM) |
| COc1ccc(/C=N/NC(=O)c2cccnc2)cc1 | > 38.3 |
| Cc1ccc(NC(=O)CN(C)C(=O)/C=C/c2ccc3c(c2)OCO3)cc1 | 6.8 (≈ 19.3 µM) |
| CCC(C)[C@H](NC(=O)N1CCC(C)CC1)C(=O)OC (stereo partly specified) | > 40.6 |
| CCCOc1nc(C)cc(COC)c1C(N)=O | > 35.7 |
| COc1ccc2nc(NC(=O)c3ccccc3F)sc2c1 | 0.5 (≈ 1.65 µM) |
| O=c1[nH]c(/C=C/c2cccc(Br)c2)nc2ccccc12 | < 0.4 |

| SMILES | solubility kinetic [µg/mL] |
| --- | --- |
| CS(=O)(=O)N(CC(=O)N1CCOCC1)c1ccc(Cl)cc1 | > 49.9 |
| Nc1nc(-c2ccc(F)cc2)cs1 | > 29.1 |
| O=C(CCN1CCN(c2ccccc2F)CC1)Nc1ccc(F)cc1 | 10.4 (≈ 30.1 µM) |
| C=CCNc1nc(-c2ccc3c(c2)OCCO3)cs1 | 16.3 (≈ 59.4 µM) |
| COc1ccc(N2CCOCC2)c(NC(=O)c2cccc3ccccc23)c1 | 6 (≈ 16.6 µM) |
| CN(C)c1ccc(NC(=O)C(=O)NCCOc2ccccc2)cc1 | 0.7 (≈ 2.14 µM) |
| CCN(c1ccccc1)S(=O)(=O)c1cccc(C(=O)OCC(=O)Nc2ccc(NC(C)=O)cc2)c1 | 2.6 (≈ 5.25 µM) |
| COc1ccc(CN2CCNCC2)c(OC)c1OC.Cl | 40.3 |
| CSc1ccccc1C(=O)C1CCCN(Cc2ccccn2)C1 (stereo unspecified) | 44.8 (≈ 137 µM) |
| O=C(NCc1nc(-c2ccc(C(F)(F)F)cc2)no1)Nc1ccc(F)cc1F | 1.1 (≈ 2.76 µM) |
| Cc1ccc2sc(N(CCN(C)C)C(=O)c3ccc4ccccc4c3)nc2c1C.Cl | 0.8 |
| Cc1cc(C)c(-c2c(O)c3ccccc3n(C)c2=O)c(C)c1 | > 44 |
| O=C(/C=C/c1ccccc1)NC(=S)Nc1ccccc1O | 0.5 (≈ 1.68 µM) |
| N#Cc1ccccc1Cn1c(=O)oc2ccccc21 | 30.9 (≈ 123 µM) |
| CCOc1ncccc1C(=O)Nc1ccc(F)c(Cl)c1 | 1 (≈ 3.39 µM) |
| CCCc1cc(=O)[nH]c(SCC(=O)NCCC2=CCCCC2)n1 | 48.2 (≈ 144 µM) |
| COc1cccc(C(=O)Nc2ccc(C(=O)c3ccccc3)cc2)c1 | 7.4 (≈ 22.3 µM) |
| OC1(c2ccccc2)Cc2cccc[n+]2C1c1ccccc1.[Br-] (stereo unspecified) | > 55.2 |
| O=C(O)CCCC(=O)Nc1ccc(Oc2ncnc3cc(Cl)ccc23)nc1 | > 58 |
| Cc1ccc(C)c(N2CN(CCC3=CCCCC3)CNC2=S)c1 | 38.7 (≈ 117 µM) |

Reference: PubChem BioAssay AID1996
